Test results as given in patent publication US10844077B2, “Thiazolyl-containing compounds for treating proliferative diseases” (Dana-Farber Cancer Institute, Inc., priority 2014, dated 2020).
Read-outs that look alike come from different tables or passages of the source.

How the values were obtained:
Assay type in all cases: binding
broad panel of kinases [1] = biological target: broad panel of kinases (Homo sapiens, UniProt P00533, G719C); details: EGFR(G719C); 1 μM
broad panel of kinases [2] = biological target: broad panel of kinases (Homo sapiens, UniProt P07332); details: FES; 1 μM
broad panel of kinases [3] = biological target: broad panel of kinases (Homo sapiens, UniProt P10721, A829P); details: KIT(A829P); 1 μM
broad panel of kinases (Homo sapiens, UniProt P10721, A829P), sequence (P10721 26-976 A829P limits assumed): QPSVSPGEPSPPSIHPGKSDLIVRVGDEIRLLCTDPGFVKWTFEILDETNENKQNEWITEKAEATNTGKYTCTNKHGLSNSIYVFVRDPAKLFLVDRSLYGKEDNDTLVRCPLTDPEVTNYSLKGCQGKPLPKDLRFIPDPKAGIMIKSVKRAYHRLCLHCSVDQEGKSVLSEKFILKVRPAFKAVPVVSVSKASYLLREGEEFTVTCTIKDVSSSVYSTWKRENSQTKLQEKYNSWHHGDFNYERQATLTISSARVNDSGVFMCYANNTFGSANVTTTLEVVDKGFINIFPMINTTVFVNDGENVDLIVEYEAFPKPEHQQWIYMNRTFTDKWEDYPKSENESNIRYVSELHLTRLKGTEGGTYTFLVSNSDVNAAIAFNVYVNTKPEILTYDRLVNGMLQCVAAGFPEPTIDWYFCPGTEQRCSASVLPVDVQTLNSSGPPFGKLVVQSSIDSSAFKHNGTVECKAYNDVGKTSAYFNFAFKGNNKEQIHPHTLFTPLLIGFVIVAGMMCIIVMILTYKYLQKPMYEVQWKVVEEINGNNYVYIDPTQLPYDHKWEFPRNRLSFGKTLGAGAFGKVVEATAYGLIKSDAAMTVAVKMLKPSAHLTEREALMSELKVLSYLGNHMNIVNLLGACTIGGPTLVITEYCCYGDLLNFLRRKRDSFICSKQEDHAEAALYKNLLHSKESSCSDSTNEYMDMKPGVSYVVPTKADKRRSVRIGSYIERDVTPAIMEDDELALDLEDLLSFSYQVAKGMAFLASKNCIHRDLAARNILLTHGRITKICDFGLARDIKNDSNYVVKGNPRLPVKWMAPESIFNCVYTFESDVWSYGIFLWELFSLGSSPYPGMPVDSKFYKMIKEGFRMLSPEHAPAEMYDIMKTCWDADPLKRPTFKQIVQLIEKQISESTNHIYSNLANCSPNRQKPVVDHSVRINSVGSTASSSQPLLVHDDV

broad panel of kinases [4] = biological target: broad panel of kinases (Homo sapiens, UniProt P10721, V559D); details: KIT(V559D); 1 μM
broad panel of kinases (Homo sapiens, UniProt P10721, V559D), sequence (P10721 26-976 V559D limits assumed): as the sequence (P10721 26-976 A829P limits assumed) above, with V534D, P804A counted along it

broad panel of kinases [5] = biological target: broad panel of kinases (Homo sapiens, UniProt P11802); details: 1 μM
broad panel of kinases (Homo sapiens, UniProt P11802), sequence (P11802 2-303 limits assumed): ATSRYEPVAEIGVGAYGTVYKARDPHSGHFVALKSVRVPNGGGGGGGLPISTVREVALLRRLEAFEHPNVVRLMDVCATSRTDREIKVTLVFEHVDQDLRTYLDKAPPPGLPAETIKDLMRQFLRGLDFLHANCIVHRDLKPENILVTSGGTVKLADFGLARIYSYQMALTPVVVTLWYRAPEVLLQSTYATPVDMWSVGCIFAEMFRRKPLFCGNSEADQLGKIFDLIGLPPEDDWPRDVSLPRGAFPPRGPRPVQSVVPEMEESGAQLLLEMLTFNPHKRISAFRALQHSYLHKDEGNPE

broad panel of kinases [6] = biological target: broad panel of kinases (Homo sapiens, UniProt P16591); details: FER; 1 μM
broad panel of kinases [7] = biological target: broad panel of kinases (Homo sapiens, UniProt P22607, G697C); details: FGFR3(G697C); 1 μM
broad panel of kinases (Homo sapiens, UniProt P22607, G697C), sequence (P22607 23-806 G697C limits assumed): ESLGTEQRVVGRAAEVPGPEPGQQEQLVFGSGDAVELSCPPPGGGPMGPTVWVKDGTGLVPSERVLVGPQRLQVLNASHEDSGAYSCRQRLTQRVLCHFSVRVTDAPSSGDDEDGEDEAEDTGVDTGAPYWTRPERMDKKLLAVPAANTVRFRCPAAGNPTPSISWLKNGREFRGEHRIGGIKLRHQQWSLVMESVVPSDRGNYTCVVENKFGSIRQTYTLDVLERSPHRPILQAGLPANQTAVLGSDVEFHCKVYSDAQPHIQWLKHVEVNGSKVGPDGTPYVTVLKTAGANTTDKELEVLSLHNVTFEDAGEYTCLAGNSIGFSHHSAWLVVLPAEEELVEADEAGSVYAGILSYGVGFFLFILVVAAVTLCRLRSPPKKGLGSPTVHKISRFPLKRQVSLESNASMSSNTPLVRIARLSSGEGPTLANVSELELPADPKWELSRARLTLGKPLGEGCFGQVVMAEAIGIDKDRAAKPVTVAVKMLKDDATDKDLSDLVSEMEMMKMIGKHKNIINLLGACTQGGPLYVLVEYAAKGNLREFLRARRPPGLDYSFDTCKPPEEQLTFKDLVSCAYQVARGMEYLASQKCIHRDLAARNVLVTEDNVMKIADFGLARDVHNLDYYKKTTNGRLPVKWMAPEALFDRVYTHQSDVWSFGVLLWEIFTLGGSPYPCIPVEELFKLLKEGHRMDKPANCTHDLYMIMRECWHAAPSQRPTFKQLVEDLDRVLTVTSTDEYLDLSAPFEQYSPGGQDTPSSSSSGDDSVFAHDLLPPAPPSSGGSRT

broad panel of kinases [8] = biological target: broad panel of kinases (Homo sapiens, UniProt P28482); details: ERK2; 1 μM
broad panel of kinases (Homo sapiens, UniProt P28482), sequence (P28482 2-360 limits assumed): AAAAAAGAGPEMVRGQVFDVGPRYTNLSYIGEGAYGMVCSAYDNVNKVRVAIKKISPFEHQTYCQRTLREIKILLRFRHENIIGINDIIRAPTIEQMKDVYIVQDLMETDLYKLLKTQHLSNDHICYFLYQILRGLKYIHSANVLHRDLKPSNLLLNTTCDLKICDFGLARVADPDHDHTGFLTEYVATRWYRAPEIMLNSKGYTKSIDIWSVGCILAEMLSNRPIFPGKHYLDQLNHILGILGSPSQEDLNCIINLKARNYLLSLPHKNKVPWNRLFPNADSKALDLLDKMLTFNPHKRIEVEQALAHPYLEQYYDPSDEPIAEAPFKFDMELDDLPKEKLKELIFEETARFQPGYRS

broad panel of kinases [9] = biological target: broad panel of kinases (Homo sapiens, UniProt P36888); details: 1 μM
broad panel of kinases (Homo sapiens, UniProt P36888), sequence (P36888 27-993 limits assumed): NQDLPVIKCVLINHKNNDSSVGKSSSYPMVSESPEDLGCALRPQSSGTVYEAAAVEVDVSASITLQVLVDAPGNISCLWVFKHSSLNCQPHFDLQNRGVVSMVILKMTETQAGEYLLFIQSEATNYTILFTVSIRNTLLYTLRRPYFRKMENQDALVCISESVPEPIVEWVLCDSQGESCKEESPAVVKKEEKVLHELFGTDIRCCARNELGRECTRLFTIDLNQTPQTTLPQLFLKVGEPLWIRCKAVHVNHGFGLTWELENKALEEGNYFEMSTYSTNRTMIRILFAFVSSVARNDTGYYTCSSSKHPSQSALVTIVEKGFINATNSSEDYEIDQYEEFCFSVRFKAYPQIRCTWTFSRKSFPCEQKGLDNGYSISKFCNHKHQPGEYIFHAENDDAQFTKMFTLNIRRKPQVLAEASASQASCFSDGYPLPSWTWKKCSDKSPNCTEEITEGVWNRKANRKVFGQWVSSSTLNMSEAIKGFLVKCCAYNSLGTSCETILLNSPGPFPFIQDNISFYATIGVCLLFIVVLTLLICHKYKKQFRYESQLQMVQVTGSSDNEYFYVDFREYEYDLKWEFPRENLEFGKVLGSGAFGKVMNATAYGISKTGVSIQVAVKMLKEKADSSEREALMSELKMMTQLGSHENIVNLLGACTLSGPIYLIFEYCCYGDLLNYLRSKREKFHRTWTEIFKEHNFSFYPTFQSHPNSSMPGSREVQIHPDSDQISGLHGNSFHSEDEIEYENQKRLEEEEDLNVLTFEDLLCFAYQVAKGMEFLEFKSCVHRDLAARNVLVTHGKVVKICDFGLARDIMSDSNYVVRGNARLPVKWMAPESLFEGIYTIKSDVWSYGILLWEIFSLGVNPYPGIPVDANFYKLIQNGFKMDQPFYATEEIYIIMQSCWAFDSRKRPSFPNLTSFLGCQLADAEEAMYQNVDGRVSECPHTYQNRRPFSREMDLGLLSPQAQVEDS

broad panel of kinases [10] = biological target: broad panel of kinases (Homo sapiens, UniProt P42336, I800L); details: PIK3CA(I800L); 1 μM
broad panel of kinases [11] = biological target: broad panel of kinases (Homo sapiens, UniProt P42336, Q546K); details: PIK3CA(Q546K); 1 μM
broad panel of kinases [12] = biological target: broad panel of kinases (Homo sapiens, UniProt P42681); details: TXK; 1 μM
broad panel of kinases [13] = biological target: broad panel of kinases (Homo sapiens, UniProt P45985); details: MEK4; 1 μM
broad panel of kinases (Homo sapiens, UniProt P45985), sequence (P45985 2-399 limits assumed): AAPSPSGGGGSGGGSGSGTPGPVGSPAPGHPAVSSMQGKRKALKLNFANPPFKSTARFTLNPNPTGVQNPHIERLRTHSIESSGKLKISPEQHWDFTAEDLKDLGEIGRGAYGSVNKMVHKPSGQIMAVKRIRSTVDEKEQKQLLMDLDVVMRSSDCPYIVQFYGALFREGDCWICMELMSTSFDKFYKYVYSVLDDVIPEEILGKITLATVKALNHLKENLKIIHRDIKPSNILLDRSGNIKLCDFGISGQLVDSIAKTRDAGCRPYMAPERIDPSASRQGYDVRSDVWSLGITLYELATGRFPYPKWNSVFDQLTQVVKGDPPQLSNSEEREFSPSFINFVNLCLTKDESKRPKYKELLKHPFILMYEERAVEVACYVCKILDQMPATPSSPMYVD

broad panel of kinases [14] = biological target: broad panel of kinases (Homo sapiens, UniProt P68400); details: CSNK2A1; 1 μM
broad panel of kinases [15] = biological target: broad panel of kinases (Homo sapiens, UniProt P80192); details: MLK1; 1 μM
broad panel of kinases [16] = biological target: broad panel of kinases (Homo sapiens, UniProt Q00536); details: PCTK1; 1 μM
broad panel of kinases [17] = biological target: broad panel of kinases (Homo sapiens, UniProt Q04759); details: PRKCQ; 1 μM
broad panel of kinases [18] = biological target: broad panel of kinases (Homo sapiens, UniProt Q13163); details: MEK5; 1 μM
broad panel of kinases [19] = biological target: broad panel of kinases (Homo sapiens, UniProt Q14164); details: IKK-epsilon; 1 μM
broad panel of kinases [20] = biological target: broad panel of kinases (Homo sapiens, UniProt Q15208); details: NDR1; 1 μM
broad panel of kinases (Homo sapiens, UniProt Q15208), sequence (Q15208 2-465 limits assumed): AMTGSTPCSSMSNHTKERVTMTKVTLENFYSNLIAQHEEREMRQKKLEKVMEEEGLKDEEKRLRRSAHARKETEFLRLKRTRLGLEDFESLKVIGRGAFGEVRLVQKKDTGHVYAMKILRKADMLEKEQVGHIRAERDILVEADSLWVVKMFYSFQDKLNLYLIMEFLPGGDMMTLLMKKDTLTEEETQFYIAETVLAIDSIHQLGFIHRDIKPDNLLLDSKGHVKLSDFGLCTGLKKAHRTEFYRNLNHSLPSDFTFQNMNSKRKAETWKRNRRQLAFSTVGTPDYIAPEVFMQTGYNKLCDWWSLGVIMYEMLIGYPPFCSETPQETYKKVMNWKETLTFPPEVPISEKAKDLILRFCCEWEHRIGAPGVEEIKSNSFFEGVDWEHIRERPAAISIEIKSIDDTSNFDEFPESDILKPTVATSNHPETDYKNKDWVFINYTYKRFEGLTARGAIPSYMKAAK

broad panel of kinases [21] = biological target: broad panel of kinases (Homo sapiens, UniProt Q16816); details: PHKG1; 1 μM
broad panel of kinases [22] = biological target: broad panel of kinases (Homo sapiens, UniProt Q52WX2); details: SBK1; 1 μM
broad panel of kinases [23] = biological target: broad panel of kinases (Homo sapiens, UniProt Q6ZN16); details: MAP3K15; 1 μM
broad panel of kinases [24] = biological target: broad panel of kinases (Homo sapiens, UniProt Q7KZI7); details: MARK2; 1 μM
broad panel of kinases [25] = biological target: broad panel of kinases (Homo sapiens, UniProt Q7L7X3); details: TAOK1; 1 μM
broad panel of kinases [26] = biological target: broad panel of kinases (Homo sapiens, UniProt Q8IYT8); details: ULK2; 1 μM
broad panel of kinases [27] = biological target: broad panel of kinases (Homo sapiens, UniProt Q8N568); details: DCAMKL2; 1 μM
broad panel of kinases [28] = biological target: broad panel of kinases (Homo sapiens, UniProt Q8NG66); details: NEK11; 1 μM
broad panel of kinases [29] = biological target: broad panel of kinases (Homo sapiens, UniProt Q9C098); details: DCAMKL3; 1 μM
broad panel of kinases [30] = biological target: broad panel of kinases (Homo sapiens, UniProt Q9H3Y6); details: SRMS; 1 μM
broad panel of kinases [31] = biological target: broad panel of kinases (Homo sapiens, UniProt Q9NYL2); details: ZAK; 1 μM
broad panel of kinases [32] = biological target: broad panel of kinases (Homo sapiens, UniProt Q9UPE1); details: SRPK3; 1 μM
broad panel of kinases [33] = biological target: broad panel of kinases (Homo sapiens, UniProt Q9UQB9); details: AURKC; 1 μM
broad panel of kinases [34] = biological target: broad panel of kinases (Homo sapiens, UniProt Q9Y2H9); details: MAST1; 1 μM
broad panel of kinases [35] = biological target: broad panel of kinases (Homo sapiens, UniProt Q9Y4K4); details: MAP4K5; 1 μM
broad panel of kinases [36] = biological target: broad panel of kinases (Plasmodium falciparum, UniProt P61075)

Compound | percent of control binding remaining (lower = stronger binding) (broad panel of kinases [1]) [%] | percent of control binding remaining (lower = stronger binding) (broad panel of kinases [2]) [%] | percent of control binding remaining (lower = stronger binding) (broad panel of kinases [3]) [%] | percent of control binding remaining (lower = stronger binding) (broad panel of kinases [4]) [%] | percent of control binding remaining (lower = stronger binding) (broad panel of kinases [5]; CDK4-cyclinD1) [%] | percent of control binding remaining (lower = stronger binding) (broad panel of kinases [5]; CDK4-cyclinD3) [%] | percent of control binding remaining (lower = stronger binding) (broad panel of kinases [6]) [%] | percent of control binding remaining (lower = stronger binding) (broad panel of kinases [8]) [%] | percent of control binding remaining (lower = stronger binding) (broad panel of kinases [9]; FLT3-autoinhibited) [%] | percent of control binding remaining (lower = stronger binding) (broad panel of kinases [9]; FLT3) [%] | percent of control binding remaining (lower = stronger binding) (broad panel of kinases [10]) [%] | percent of control binding remaining (lower = stronger binding) (broad panel of kinases [11]) [%] | percent of control binding remaining (lower = stronger binding) (broad panel of kinases [12]) [%] | percent of control binding remaining (lower = stronger binding) (broad panel of kinases [13]) [%] | percent of control binding remaining (lower = stronger binding) (broad panel of kinases [14]) [%] | percent of control binding remaining (lower = stronger binding) (broad panel of kinases [15]) [%] | percent of control binding remaining (lower = stronger binding) (broad panel of kinases [16]) [%] | percent of control binding remaining (lower = stronger binding) (broad panel of kinases [17]) [%] | percent of control binding remaining (lower = stronger binding) (broad panel of kinases [18]) [%] | percent of control binding remaining (lower = stronger binding) (broad panel of kinases [19]) [%] | other results
C=CC(=O)N1CC[C@H](Nc2nc(CN3CCOCC3)cc(Nc3ncc(C(=O)Nc4c(C)cccc4C)s3)n2)C1 [Example I-2] | 23 | 98 | 5.8 | 0 | 96 | 94 | 100 | 100 | 100 | 100 | 76 | 83 | 0.6 | 100 | 90 | 89 | 97 | 94 | 0.25 | 100 | percent of control binding remaining (lower = stronger binding) (broad panel of kinases [7]): 100%; percent of control binding remaining (lower = stronger binding) (broad panel of kinases [20]): 63%; percent of control binding remaining (lower = stronger binding) (broad panel of kinases [21]): 100%; percent of control binding remaining (lower = stronger binding) (broad panel of kinases [22]): 54%; percent of control binding remaining (lower = stronger binding) (broad panel of kinases [23]): 92%; percent of control binding remaining (lower = stronger binding) (broad panel of kinases [24]): 100%; percent of control binding remaining (lower = stronger binding) (broad panel of kinases [25]): 93%; percent of control binding remaining (lower = stronger binding) (broad panel of kinases [26]): 89%; percent of control binding remaining (lower = stronger binding) (broad panel of kinases [27]): 98%; percent of control binding remaining (lower = stronger binding) (broad panel of kinases [28]): 83%; percent of control binding remaining (lower = stronger binding) (broad panel of kinases [29]): 97%; percent of control binding remaining (lower = stronger binding) (broad panel of kinases [30]): 7.6%; percent of control binding remaining (lower = stronger binding) (broad panel of kinases [31]): 87%; percent of control binding remaining (lower = stronger binding) (broad panel of kinases [32]): 100%; percent of control binding remaining (lower = stronger binding) (broad panel of kinases [33]): 90%; percent of control binding remaining (lower = stronger binding) (broad panel of kinases [34]): 98%; percent of control binding remaining (lower = stronger binding) (broad panel of kinases [35]): 82%; % change compared to control (broad panel of kinases [36]): 100%
C=CC(=O)N1CC[C@H](Nc2nccc(Nc3ncc(C(=O)Nc4c(C)cccc4C)s3)n2)C1 [Example I-3] | 14 | 93 | 10 | 0 | 99 | 95 | 99 | 100 | 100 | 84 | 89 | 100 | 0.7 | 100 | 98 | 92 | 100 | 98 | 0.45 | 100 | % change compared to control (broad panel of kinases [7]): 99%; percent of control binding remaining (lower = stronger binding) (broad panel of kinases [20]): 74%; percent of control binding remaining (lower = stronger binding) (broad panel of kinases [21]): 99%; percent of control binding remaining (lower = stronger binding) (broad panel of kinases [22]): 58%; percent of control binding remaining (lower = stronger binding) (broad panel of kinases [23]): 100%; percent of control binding remaining (lower = stronger binding) (broad panel of kinases [24]): 80%; percent of control binding remaining (lower = stronger binding) (broad panel of kinases [25]): 98%; percent of control binding remaining (lower = stronger binding) (broad panel of kinases [26]): 91%; percent of control binding remaining (lower = stronger binding) (broad panel of kinases [27]): 93%; percent of control binding remaining (lower = stronger binding) (broad panel of kinases [28]): 49%; percent of control binding remaining (lower = stronger binding) (broad panel of kinases [29]): 92%; percent of control binding remaining (lower = stronger binding) (broad panel of kinases [30]): 12%; percent of control binding remaining (lower = stronger binding) (broad panel of kinases [31]): 94%; percent of control binding remaining (lower = stronger binding) (broad panel of kinases [32]): 97%; percent of control binding remaining (lower = stronger binding) (broad panel of kinases [33]): 71%; percent of control binding remaining (lower = stronger binding) (broad panel of kinases [34]): 93%; percent of control binding remaining (lower = stronger binding) (broad panel of kinases [35]): 96%; % change compared to control (broad panel of kinases [36]): 100%
